The values that follow come from publication PMC10694292, “Increased sinusoidal export of drug glucuronides is a compensative mechanism in liver cirrhosis of mice” (Frontiers in Pharmacology, 2023).

The conditions of data set [1]: cited from earlier work.
For data set [2] the following is noted: rat, cited from earlier work.
The conditions of data set [3]: DrugBank, human; ref Wishart et al., 2017; cited from earlier work.
The nature of data set [4]: Drug cocktail i.v. in mice: 24 h urine, fraction of dose excreted. The conditions noted are these: mice, after drug cocktail administration.
The conditions of data set [5]: cited from earlier work. The source holds these as a separate data set.
Data set [6] in a line: Drug cocktail i.v. in CCl4-cirrhotic and control mice: plasma concentrations and AUC. Conditions: accompanying increased glucuronides.
For data set [7] the following is noted: rats; ref Fukuda et al., 2008; cited from earlier work.
For data set [8] the following is noted: mouse, in vivo.
For data set [9] the following is noted: ref Thiel et al., 2015, cited from earlier work.
The conditions of data set [10]: humans; ref Everett et al., 1991; cited from earlier work.
The test system of data set [11] is OATP1B1. Details: method as in Nakai et al., 2001. Conditions: human, experimental; ref Nakai et al., 2001; cited from earlier work.

Converted amounts (≈) assume the structure as drawn. Where two headings read alike, the source gives them in different places.

A word on the Solubility: it is how much of the substance goes into solution per volume. For orientation: pKa means the pH at which an ionisable group is half protonated. `Cc1ncc2n1-c1ccc(Cl)cc1C(c1ccccc1F)=NC2` [Midazolam, midazolam]: the Fraction unbound in data set [1] (measurement, mouse, ref Varkhede et al., 2018) is 0.08; in [1] (species not given, ref Maurer et al., 2005, Schenk et al., 2017) it was 0.046; in data set [2] (ref Poulin and Theil, 2002), 0.027; in [3], 0.03. In data set [4], the “Mean fraction of dose excreted to urine” value is “below 1%”. Besides, the Solubility in data set [5] (Ref pH: 6.5, ref Heikkinen et al., 2012) was 50 µg/mL (≈ 0.153 mM). Also, the Lipophilicity in data set [5] (measurement, ref Poulin and Theil, 2002) is 2.95; in [5] (optimized (mouse), ref Schenk et al., 2017), 3.33; in data set [5] (optimized, ref Britz et al., 2019), 3.13; in data set [5] (prediction, ref Wishart et al., 2017), 3.89. In addition, the pKa in [5] (midazolam: experimental, ref Poulin and Theil, 2002) is 5.82; in data set [5] (prediction, ref Nguyen et al., 2016) it was 6.04; in data set [5] (ref Schenk et al., 2017), 6.14. Moreover, in data set [5] (ref Wishart et al., 2017), the “pKa (Base)” value is reported as 6.57. In addition, the “Measured plasma concentrations of parent compound in cirrhotic mice” value in [6] is reported as “decreased”.
For orientation: Vmax means the top rate of the reaction or transport when substrate is in excess. A word on the Km: it is the substrate concentration at which the rate is half of its maximum. On to `CC[C@H](C)C(=O)O[C@H]1C[C@H](O)C=C2C=C[C@H](C)[C@H](CC[C@@H](O)C[C@@H](O)CC(=O)O)[C@H]21` [Pravastatin, pravastatin], for which the “Dose found in bile” value in data set [7] is reported as “about 60%”. Besides, in data set [8], the “Mean fraction of dose excreted to urine” value was “Less than 1%”. Further, the “Fraction of dose in urine (24 h), cirrhotic vs control mice” value in data set [8] (iv) is “increased significantly”. Also, the Fraction unbound in data set [2] (ref Fukuda et al., 2008) is 0.672; in data set [9] (mouse, optimized (talinolol: possibly optimized)), 0.73. Further, the maximal velocity (Vmax) in data set [9] (Oatp1b2, optimized for mice with measured human Km) is 2.5 µmol/L/min. In addition, the “Dose recovered unchanged from urine” value in [10] is reported as “about 41%”. Also, the Solubility in data set [5] (DrugBank, ref Wishart et al., 2017) is 10000 µg/mL (≈ 23.6 mM). Also, the Lipophilicity is reported as 0.59 in data set [5] (MSDS, ref Wishart et al., 2017); 1.6 in [5] (experimental pH=5, ref Serajuddin et al., 1991); -0.23 in data set [5] (experimental pH=7, ref Serajuddin et al., 1991); 0.82 in data set [5] (human, optimized, ref Lippert et al., 2012). In addition, in data set [5] (ref Wishart et al., 2017, Puttegowda et al., 2016), the “pKa (Acid)” value is listed as 4.2. Also, the Km in data set [11] is 11.5 µM.
